In patent US10973801B2, “Capsid assembly modulator dosing regimen” (Janssen Sciences Ireland Unlimited Company, priority 2018, dated 2021):
Several values for one entry are separate records, joined by “and”; a condition that tells them apart may be missing. Identical values can stand only once. Like-named read-outs stand apart in the source and are kept apart here.

How the values were obtained:
HBV DNA = experiment: Plasma HBV DNA in treatment naïve chronic hepatitis B patients; type: in vivo, hepatitis B virus; conditions: for HBV DNA Day 29 Mean Change from Baseline: N 8; for mean reduction in plasma HBV DNA levels from baseline: after 28 days
Source text: Serum HBV DNA quantitation can be performed according to methods known in the art, for example, using the polymerase chain reaction (PCR)-based assay COBAS® TAQMAN® HBV Test v2.0 (Roche Diagnostics), which has been validated to quantify HBV DNA from serum samples for diverse HBV genotypes (A-H) including pre-core mutant HBV strains, with a reported lower limit of detection of 35 IU/mL and a linear dynamic range of quantitation of 1.7×10^2 to 8.5×10^8 IU/mL IU/mL, using the WHO pooled serum reference standard for quantitation.
(§1) In part 2 of this study (FIG. 1, sessions 8-9), the objective was to evaluate the safety, PK, and antiviral activity of Compound A in treatment naïve, chronic hepatitis B patients over a 28-day treatment period. The patient criteria were: • HBeAg-positive or negative • Plasma HBV DNA>2.0 log 10 IU/mL • ALT/AST<2.5×ULN • METAVIR stage<F3. 1.1 Patient Baseline Characteristics
HBV DNA was assessed for each patient weekly during this study (see FIG. 3). A mean reduction in plasma HBV DNA levels of 2.16 (±0.49 SD) log10 IU/mL (25 mg Compound A) and 2.89 (±0.48 SD) log10 IU/mL (75 mg Compound A) from baseline was observed after 28 days. Three patients dosed with 75 mg QD achieved HBV DNA below the level of quantification of the HBV DNA assay while none in the 25 mg Compound A group achieved this. A more pronounced and consistent decline in HBV DNA was observed across patients in the 75 mg group compared with the 25 mg group.

[1] = Safety and tolerability of single ascending doses in healthy Japanese volunteers; type: in vivo, human
Experimental: A double-blind, placebo-controlled study was done to assess the safety, tolerability, and pharmacokinetics (PK) of Compound A. Thirty-two healthy adult Japanese volunteers were randomized into four cohorts. The volunteers were randomized 3:1 to receive a single dose of Compound A or placebo in a fasted state (see FIG. 4). The safety, tolerability and PK plasma profiles of Compound A were assessed after each dose. Full plasma PK profiles were determined up to 28 days after each single dose of Compound A. Urinary elimination was assessed in Cohort C (see FIG. 4) for 7 day. […] The treatment emergent adverse events (TEAEs) reported reported were hiccups, upper respiratory tract infection, nasal congestion, and cough. […] No significant laboratory abnormalities were discovered, most laboratory abnormalities were Grade 1.

[2] = Pharmacokinetics of Compound A in chronic HBV patients, 28 day treatment; type: in vivo, human
Source text: as §1
The exposure (Cmax, AUC) increased in a dose-dependent manner with time-linear PK. The pharmacokinetics of Compound A were not markedly different between healthy volunteers and patients. Mean Compound A exposures in patients with CHB could be predicted from data in healthy volunteers. Mean (±SD) exposure in the 75 mg arm was within 90% prediction interval. […] Apparent clearance was low and similar in the two dosing groups (1 and 0.9 L/h at 25 mg and 75 mg, respectively).

[3] = Pharmacokinetics of single ascending doses in healthy Japanese volunteers; type: in vivo, human; conditions: for Mean CL/F (SD) / Cmax / Vd/F / half-life / Tmax: fasted (n = 6); for Cmax / Vd/F / half-life / Tmax: human, plasma, oral; for Cmax: read-out: Mean Cmax (SD); for Vd/F: read-out: Mean Vd/F (SD); for half-life: read-out: Mean t1/2 term (SD) (converted); for Tmax: read-out: Median tmax
Experimental: A double-blind, placebo-controlled study was done to assess the safety, tolerability, and pharmacokinetics (PK) of Compound A. Thirty-two healthy adult Japanese volunteers were randomized into four cohorts. The volunteers were randomized 3:1 to receive a single dose of Compound A or placebo in a fasted state (see FIG. 4). The safety, tolerability and PK plasma profiles of Compound A were assessed after each dose. Full plasma PK profiles were determined up to 28 days after each single dose of Compound A. Urinary elimination was assessed in Cohort C (see FIG. 4) for 7 day.
The PKs were dose-dependent in all four treatment cohorts. […] The inter-subject variability, expressed as % CV, was low to moderate and similar across dose levels.

## C[C@H](NS(=O)(=O)c1cc(C(=O)Nc2ccc(F)c(C#N)c2)n(C)c1)C(F)(F)F [Compound A]
HBV DNA; 25 mg QD
  HBV DNA Day 29 Mean Change from Baseline: −2.16 log10 IU/mL
HBV DNA; 25 mg
  mean reduction in plasma HBV DNA levels from baseline: 2.16 (±0.49 SD) log10 IU/mL and 2.16 (±0.49) log10 IU/mL
HBV DNA; 75 mg QD
  HBV DNA Day 29 Mean Change from Baseline: −2.89 log10 IU/mL
HBV DNA; 75 mg
  mean reduction in plasma HBV DNA levels from baseline: 2.89 (±0.48 SD) log10 IU/mL and 2.89 (±0.48) log10 IU/mL
[1]; 25 mg single dose (n = 6)
  Deaths: 0
  Grade 2 AEs: Bilirobin increased: 0
  Grade 2 AEs: Cholesterol increased: 0
  Grade 2 AEs: Fibrinogen decreased: 0
  Grade 2 AEs: Leukocytes decreased: 0
  Grade 2 AEs: Triglycerides increased: 1
  SAEs: 0
  Treatment-emergent AEs Related to Compound A: 0
  Volunteers with ≥0.1 AE (treatment-emergent AEs): 0
[1]; 150 mg single dose (n = 6)
  Deaths: 0
  Grade 2 AEs: Bilirobin increased: 0
  Grade 2 AEs: Cholesterol increased: 0
  Grade 2 AEs: Fibrinogen decreased: 0
  Grade 2 AEs: Leukocytes decreased: 0
  Grade 2 AEs: Triglycerides increased: 0
  SAEs: 0
  Treatment-emergent AEs Related to Compound A: 0
  Volunteers with ≥0.1 AE (treatment-emergent AEs): 2
[1]; 300 mg single dose (n = 6)
  Deaths: 0
  Grade 2 AEs: Bilirobin increased: 0
  Grade 2 AEs: Cholesterol increased: 0
  Grade 2 AEs: Fibrinogen decreased: 0
  Grade 2 AEs: Leukocytes decreased: 0
  Grade 2 AEs: Triglycerides increased: 1
  SAEs: 0
  Treatment-emergent AEs Related to Compound A: 0
  Volunteers with ≥0.1 AE (treatment-emergent AEs): 0
[1]; 500 mg single dose (n = 6)
  Deaths: 0
  Grade 2 AEs: Bilirobin increased: 0
  Grade 2 AEs: Cholesterol increased: 0
  Grade 2 AEs: Fibrinogen decreased: 0
  Grade 2 AEs: Leukocytes decreased: 0
  Grade 2 AEs: Triglycerides increased: 0
  SAEs: 0
  Treatment-emergent AEs Related to Compound A: 0
  Volunteers with ≥0.1 AE (treatment-emergent AEs): 2
[1]; Total (n = 32)
  Deaths: 0
  Grade 2 AEs: Bilirobin increased: 0
  Grade 2 AEs: Cholesterol increased: 0
  Grade 2 AEs: Fibrinogen decreased: 0
  Grade 2 AEs: Leukocytes decreased: 0
  Grade 2 AEs: Triglycerides increased: 2
  SAEs: 0
  Treatment-emergent AEs Related to Compound A: 0
  Volunteers with ≥0.1 AE (treatment-emergent AEs): 4
[1]; single dose 25-500 mg, fasted
  Grade 3 or 4 laboratory abnormalities: No Grade 3 or 4 abnormalities were reported
  SAEs and premature discontinuation for an AE: No volunteers experienced an SAE or prematurely discontinued the study for an AE
  severity of treatment emergent adverse events (TEAEs): All TEAEs were mild
  tolerability: well tolerated
[2]; 25 mg
  Apparent clearance: 1 L/h
  Mean dose normalized AUC 0-24 h: 1109 ng·h/mL
  Mean dose normalized Cmax at steady state: 56.6 ng/mL
[2]; 25 mg and 75 mg arms
  dose proportionality of pharmacokinetics: dose-proportional
[2]; 75 mg
  Apparent clearance: 0.9 L/h
  Mean dose normalized AUC 0-24 h: 1109 ng·h/mL
  Mean dose normalized Cmax at steady state: 53.2 ng/mL
[3]; 25 mg single dose
  Mean CL/F (SD): 1.03 (0.33) L/h
  Cmax: 375 ng/mL
  Vd/F: 132 L
  half-life: 106 h
  Tmax: 1.75 h
[3]; 160 mg single dose
  Mean CL/F (SD): 0.929 (0.24) L/h
  Cmax: 296 ng/mL
  Vd/F: 126 L
  half-life: 100 h
  Tmax: 3 h
[3]; 300 mg single dose
  Mean CL/F (SD): 0.852 (0.17) L/h
  Cmax: 308 ng/mL
  Vd/F: 1140 L
  half-life: 116 h
  Tmax: 3 h
[3]; 500 mg single dose
  Mean CL/F (SD): 0.919 (0.23) L/h
  Cmax: 328 ng/mL
  Vd/F: 119 L
  half-life: 95.6 h
  Tmax: 1.75 h
[3]; all four treatment cohorts
  dose dependence of PKs: dose-dependent
[3]; single dose 300 mg, Cohort C
  administered dose excreted via the kidneys: 18%
[3]; single dose 300 mg, Cohort C, 7 day
  unchanged drug excreted in urine: 53.9 mg
